According to patent publication US9850219B1, “Phenothiazine derivatives and methods of use thereof” (Acenda Pharma, Inc., priority 2016, dated 2017):

Key:
DLD1 = experiment: Cytotoxicity, sulforhodamine B (SRB) assay, DLD1; type: cell-based, human; settings: 48 h
From the text: (§1) Human non-small cell lung cancer (NSCLC) cell lines (e.g., A549, H441GL and H1299), colon cancer cell lines (e.g., HCT116 and DLD1), breast cancer cell lines (e.g., MCF7 and MDA-MB-231), and pancreatic cancer cell lines (e.g., PANC-1 and SUIT-2) were used in cytotoxicity studies. These NSCLC cell lines have intrinsic resistance to epidermal growth factor receptor (EGFR) inhibitors, e.g., gefitinib. A549 and H441GL are EGFR-wild type adenocarcinoma cell lines. H1299 is an EGFR-wild type large cell carcinoma cell line. HCT116 and DLD1 are metastatic colon cell lines. MCF7 is a hormone-responsive breast cancer cell line. MDA-MB-231 is a triple-negative breast cancer cell line. PANC-1 is a metastatic adenocarcinoma cell line. SUIT-2 is a pancreatic ductal adenocarcinoma cell line.
(§2) All cell lines were grown and maintained in RPMI medium supplemented with 10% fetal bovine serum (FBS, Invitrogen), 2 mM L-glutamine, 100 U/mL penicillin, and 100 μg/mL streptomycin. For cell the culture experiment, stock solution (10 mM) of each test compound was dissolved in dimethyl sulfoxide (DMSO; Sigma).
(§3) Cells were plated in 96-well plates at a density of 2000 cells per well in triplicate. The cells in each well were treated on the third day (to ensure proper plating efficiency and vitality) with different concentrations (0-50 μM) of each test compound for 48 h.
(§4) Cell viability was assessed using the sulforhodamine B (SRB) assay. The medium was discarded, and the adherent cells were fixed by 100 μL of cold 10% trichloroacetic acid (w/v) in each well for 1 h at 4° C. After fixation, cells were stained with 100 μL/well of 0.4% (w/v, in 1% acetic acid) SRB solution for 30 min at room temperature, and then washed 5 times with 1% acetic acid. After air-drying, 100 μL of 10 mM Tris base was added to each well and the absorbance was read at 530 nm. Cytotoxicity is expressed as the percent of cells in drug treated wells relative to number of cells in the solvent only control (set to 100%). Each experiment was performed independently in triplicate and cytotoxicity IC50 value of each test compound was calculated from cytotoxicity data obtained at various concentrations.

A549 = experiment: Cytotoxicity, sulforhodamine B (SRB) assay, A549; type: cell-based, Human; settings: A549, 48 h, NA indicates no activity
From the text: as §1, with “These NSCLC cell lines have intrinsic resistance to epidermal growth factor receptor (EGFR) inhibitors, e.g., gefitinib.” left out
as §2, §3, §4

MDA-MB-231 = experiment: Cytotoxicity, sulforhodamine B (SRB) assay, MDA-MB-231; type: cell-based, human; settings: MDA-MB-231, Breast, 48 h
From the text: as §1, §2, §3, §4

lung cancer cells = experiment: Cytotoxicity SRB assay, summary of Table 2; type: cell-based, Human; settings: summary in words of Table 2
From the text: as §1, §3, §4
NA indicates no activity.

H441GL = experiment: Cytotoxicity, sulforhodamine B (SRB) assay, H441GL; type: cell-based, Human; settings: 48 h, NA indicates no activity
From the text: as §1, with “These NSCLC cell lines have intrinsic resistance to epidermal growth factor receptor (EGFR) inhibitors, e.g., gefitinib.” left out
as §2, §3, §4

HCT116 = experiment: Cytotoxicity, sulforhodamine B (SRB) assay, HCT116; type: cell-based, human; settings: 48 h
From the text: as §1, §2, §3, §4

SUIT-2 = experiment: Cytotoxicity, sulforhodamine B (SRB) assay, SUIT-2; type: cell-based, human; settings: SUIT-2, Pancreas, 48 h
From the text: as §1, §2, §3, §4

MCF7 = experiment: Cytotoxicity, sulforhodamine B (SRB) assay, MCF7; type: cell-based, human; settings: MCF7, Breast, 48 h
From the text: as §1, §2, §3, §4

PANC-1 = experiment: Cytotoxicity, sulforhodamine B (SRB) assay, PANC-1; type: cell-based, human; settings: PANC-1, Pancreas, 48 h, NA = no activity
From the text: as §1, §2, §3, §4

H441GL cells [1] = experiment: Study 2: tumor size in mouse lung cancer model; type: in vivo, NOD/SCID mice; settings: for Tumor Size [Fold Change from Week 3 (Mean ± SD, n = 4)] Week 3 / Tumor Size [Fold Change from Week 3 (Mean ± SD, n = 4)] Week 9 / Tumor Size [Fold Change from Week 3 (Mean ± SD, n = 4)] Week 13: Study 2, 0.0127 mmol/kg daily, i.p.; for Tumor Size [Fold Change from Week 3 (Mean ± SD, n = 4)] Week 3: Week 3 (baseline, start of treatment)
Protocol: (§5) H441GL cells (1×10^6 cells in 100 μL phosphate-buffered saline/injection) were subcutaneously injected into the right flank of NOD/SCID mice (female, 4-6 weeks old). Mice were allowed 2 weeks for tumor growth. On the first day of Week 3 post injection, tumor-bearing mice were randomly divided into control group (DMSO vehicle, intraperitoneal (i.p.) injection) and test compound treatment groups (5 mg/kg/day, 5 days/week, i.p. injection). Over the period of 10 weeks, tumorigenesis in both groups was measured using a caliper on a weekly basis. The change in tumor size was expressed as in fold change from Week 3. In this study body weight of each mouse was also recorded at the end of each study week.
In this study, the daily dose was 0.0127 mmol/kg instead of 5 mg/kg.

H441GL cells [2] = experiment: Study 1: tumor size in mouse lung cancer model; type: in vivo, NOD/SCID mice; settings: for Tumor Size [Fold Change from Week 3 (Mean ± SD, n = 4)] Week 3 / Tumor Size [Fold Change from Week 3 (Mean ± SD, n = 4)] Week 9 / Tumor Size [Fold Change from Week 3 (Mean ± SD, n = 4)] Week 13: Study 1, 5 mg/kg/day, 5 days/week, i.p.; for Tumor Size [Fold Change from Week 3 (Mean ± SD, n = 4)] Week 3: Week 3 (baseline, start of treatment)
Protocol: as §5

H1299 = experiment: Cytotoxicity, sulforhodamine B (SRB) assay, H1299; type: cell-based; settings: Homo sapiens, NCI-H1299, H1299, 48 h
From the text: as §1, with “These NSCLC cell lines have intrinsic resistance to epidermal growth factor receptor (EGFR) inhibitors, e.g., gefitinib.” left out
as §2, §3, §4

[3] = Homo sapiens, DLD-1, DLD1, Colon
[4] = Homo sapiens, HCT-116, HCT116, Colon

Row | Compound | IC50 (DLD1; DLD1, Colon) | IC50 (A549) | IC50 (MDA-MB-231) | inhibition of cell proliferation of lung cancer cells (lung cancer cells) | IC50 (H441GL) | IC50 (HCT116; HCT116, Colon) | IC50 (SUIT-2) | IC50 (MCF7) | IC50 (PANC-1) | IC50 (A549; Homo sapiens) | IC50 (MDA-MB-231; Homo sapiens) | IC50 (H441GL; Homo sapiens) | IC50 (SUIT-2; Homo sapiens) | IC50 (MCF7; Homo sapiens) | IC50 (PANC-1; Homo sapiens) | IC50 (H1299) | also measured
1 | COCCOCCOCCN1CCN(CCCN2c3ccccc3Sc3ccc(C(F)(F)F)cc32)CC1 [Compound 4-1b] | 8 µM | 26.3 µM | 14.7 µM | inhibit cell proliferation | 10.5 µM | 6.5 µM | 13.3 µM | 13.1 µM | 20 µM |  |  |  |  |  |  |  | 
2 | COCCOCCOCCOCCOCCOCCN1CCN(CCCN2c3ccccc3Sc3ccc(C(F)(F)F)cc32)CC1 [Compound 4-2b] | 13.9 µM | 21.3 µM | 15.8 µM | inhibit cell proliferation | 6.8 µM | 6.5 µM | 15.6 µM | 13.2 µM | 10.5 µM |  |  |  |  |  |  |  | effect on tumor growth as compared to the vehicle control (H441GL cells [1]; Study 2, 0.0127 mmol/kg daily i.p., by Week 13, in words): largest effect of suppressing tumor growth; Tumor Size [Fold Change from Week 3 (Mean ± SD, n = 4)] Week 3 (H441GL cells [1]): 1 ± 0 Fold Change; Tumor Size [Fold Change from Week 3 (Mean ± SD, n = 4)] Week 9 (H441GL cells [1]): 9.4 ± 2.6 Fold Change; Tumor Size [Fold Change from Week 3 (Mean ± SD, n = 4)] Week 13 (H441GL cells [1]): 23.3 ± 6.2 Fold Change
3 | COCCOCCOCCOCCOCCOCCOCCOCCOCCOCCOCCOCCN1CCN(CCCN2c3ccccc3Sc3ccc(C(F)(F)F)cc32)CC1 [Compound 4-3b] | 18 µM | 11.5 µM | 13.8 µM | inhibit cell proliferation | 10.5 µM | 8.4 µM | 22 µM | 10.2 µM | 15.2 µM |  |  |  |  |  |  |  | Tumor Size [Fold Change from Week 3 (Mean ± SD, n = 4)] Week 3 (H441GL cells [1]): 1 ± 0 Fold Change; Tumor Size [Fold Change from Week 3 (Mean ± SD, n = 4)] Week 9 (H441GL cells [1]): 11.7 ± 2.1 Fold Change; Tumor Size [Fold Change from Week 3 (Mean ± SD, n = 4)] Week 13 (H441GL cells [1]): 30.2 ± 6.2 Fold Change
4 | COCCOCCOCCOC(=O)N1CCN(CCCN2c3ccccc3Sc3ccc(C(F)(F)F)cc32)CC1 [Compound 5-1b, NDT-CO—O—[CH2CH2O]3—CH3] | 35.9 µM | 3.8 µM | 21.6 µM | inhibit cell proliferation | 3.2 µM | 10 µM | 21.4 µM | 13.6 µM | 18.2 µM |  |  |  |  |  |  |  | Tumor Size [Fold Change from Week 3 (Mean ± SD, n = 4)] Week 3 (H441GL cells [2]): 1 ± 0 Fold Change; Tumor Size [Fold Change from Week 3 (Mean ± SD, n = 4)] Week 9 (H441GL cells [2]): 28.2 ± 7.4 Fold Change; Tumor Size [Fold Change from Week 3 (Mean ± SD, n = 4)] Week 13 (H441GL cells [2]): 69.8 ± 18.4 Fold Change
5 | COCCOCCOCCOCCOCCOCCOC(=O)N1CCN(CCCN2c3ccccc3Sc3ccc(C(F)(F)F)cc32)CC1 [Compound 5-2b, NDT-CO—O—[CH2CH2O]6—CH3] | 15.2 µM | 3.2 µM | 15.8 µM | inhibit cell proliferation | 2.7 µM | 7.3 µM | 10.8 µM | 12 µM | 12.5 µM |  |  |  |  |  |  |  | effect on tumor growth as compared to the vehicle control (H441GL cells [2]; Study 1, 5 mg/kg/day i.p., in words): largest effect of suppressing tumor growth; Tumor Size [Fold Change from Week 3 (Mean ± SD, n = 4)] Week 3 (H441GL cells [2]): 1 ± 0 Fold Change; Tumor Size [Fold Change from Week 3 (Mean ± SD, n = 4)] Week 9 (H441GL cells [2]): 23.4 ± 7.5 Fold Change; Tumor Size [Fold Change from Week 3 (Mean ± SD, n = 4)] Week 13 (H441GL cells [2]): 51.6 ± 17.6 Fold Change
6 | COCCOCCOCCOCCOCCOCCOCCOCCOCCOCCOCCOCCOC(=O)N1CCN(CCCN2c3ccccc3Sc3ccc(C(F)(F)F)cc32)CC1 [Compound 5-3b, NDT-CO—O—[CH2CH2O]12—CH3] | 18.2 µM | 2.7 µM | 9.2 µM | inhibit cell proliferation | 1.6 µM | 7.9 µM | 10.8 µM | 8.3 µM | 3.6 µM |  |  |  |  |  |  |  | Tumor Size [Fold Change from Week 3 (Mean ± SD, n = 4)] Week 3 (H441GL cells [2]): 1 ± 0 Fold Change; Tumor Size [Fold Change from Week 3 (Mean ± SD, n = 4)] Week 9 (H441GL cells [2]): 33.4 ± 8.2 Fold Change; Tumor Size [Fold Change from Week 3 (Mean ± SD, n = 4)] Week 13 (H441GL cells [2]): 79.4 ± 20.3 Fold Change
7 | COCC(COCC(COCC(CN1CCN(CCCN2c3ccccc3Sc3ccc(Cl)cc32)CC1)OC)OC)OC (stereo not drawn) [Compound 24a, NDP-[CH2CH(OCH3)CH2O]3—CH3] |  |  |  | inhibit cell proliferation |  |  |  |  |  | 11.7 µM | 17.6 µM | 19.1 µM | 16.1 µM | 14.5 µM | 12.4 µM | 14.2 µM | 
8 | COCC(COCC(COCC(CN1CCN(CCCN2c3ccccc3Sc3ccc(C(F)(F)F)cc32)CC1)OC)OC)OC (stereo not drawn) [Compound 24b, NDT-[CH2CH(OCH3)CH2O]3—CH3] |  |  |  | inhibit cell proliferation |  |  |  |  |  | 11.8 µM | 11.3 µM | 21 µM | 13.9 µM | 9.9 µM | 25.8 µM | 10.9 µM | IC50 (DLD1; [3]): 11.8 µM; IC50 (HCT116; [4]): 5.9 µM
9 | COCC(COCC(COCC(COCCOCCOCCN1CCN(CCCN2c3ccccc3Sc3ccc(Cl)cc32)CC1)OC)OC)OC (stereo not drawn) [Compound 25-1a, NDP-[CH2CH2O]n—[CH2CH(OCH3)CH2O]3—CH3] |  |  |  | inhibit cell proliferation |  |  |  |  |  | 12.7 µM | 12.7 µM | 13.3 µM | 13 µM | 14.6 µM | 16.4 µM | 13.1 µM | Tumor Size [Fold Change from Week 3 (Mean ± SD, n = 4)] Week 3 (H441GL cells [1]): 1 ± 0 Fold Change; Tumor Size [Fold Change from Week 3 (Mean ± SD, n = 4)] Week 9 (H441GL cells [1]): 12.3 ± 2.0 Fold Change; Tumor Size [Fold Change from Week 3 (Mean ± SD, n = 4)] Week 13 (H441GL cells [1]): 31.5 ± 5.4 Fold Change
10 | COCC(COCC(COCC(COCCOCCOCCOCCOCCOCCOCCOCCOCCN1CCN(CCCN2c3ccccc3Sc3ccc(Cl)cc32)CC1)OC)OC)OC (stereo not drawn) [Compound 25-2a, NDP-[CH2CH2O]n—[CH2CH(OCH3)CH2O]3—CH3] |  |  |  | inhibit cell proliferation |  |  |  |  |  | 16.7 µM | 16.8 µM | 17.5 µM | 25.6 µM | 13.3 µM | 35.4 µM | 16.8 µM | 
11 | COCCOCCOCCOCC(COCC(COCC(CN1CCN(CCCN2c3ccccc3Sc3ccc(C(F)(F)F)cc32)CC1)OC)OC)OC (stereo not drawn) [Compound 26-1b, NDT-[CH2CH(OCH3)CH2O]3—[CH2CH2O]n—CH3] |  |  |  | inhibit cell proliferation |  |  |  |  |  | 14.4 µM | 6.4 µM | 12.1 µM | 12.9 µM | 10.3 µM |  | 20.4 µM | IC50 (DLD1; [3]): 13.9 µM; IC50 (HCT116; [4]): 8.5 µM
